# Experimental data reported in US20250388591A1 (CSPC ZHONGQI PHARMACEUTICAL TECHNOLOGY (SHIJIAZHUANG) CO., …, priority 2022, published 2025).
# How the values were obtained:
# MAT2A = target: T1, MAT2A (Homo sapiens, UniProt P31153); test: MAT2A enzymatic assay (MAT2A Inhibitor Enzymatic Screening Kit); format: biochemical; details: MAT2A enzyme, colorimetric detection at 630 nm; read-out: Inhibitory activity against Enzyme (IC50: nM)
# T1 construct: purchased BPS Bioscience
# Experimental: The inhibitory effect of the test compounds on the enzymatic activity of MAT2A was determined using MAT2A Inhibitor Enzymatic Screening Kit (BPS Bioscience).
# 1) Test compounds were dissolved in DMSO and mixed well until the test compounds were completely dissolved. All compounds were diluted with DMSO to a starting concentration of 2 mM, and diluted at a 3-fold ratio to a total of 10 concentration gradients. Duplicate wells were set. The compounds were added to the reaction system at a ratio of 1:100 (20 μM of the maximum final concentration) during detection. 100× positive control (1 mM AGI-24512) and 100× negative control (100% DMSO) were prepared.
# 2) 200 nL of each of the diluted compounds were transferred to each well of the reaction plate (Corning 3702) using an Echo 550 pipetting system, and the reaction plate was sealed with a sealing film, and centrifuged at 1000 g for 1 minute. The final concentration of DMSO was 1%.
# 3) Preparation of 1×MAT2A enzyme reaction buffer: 1× volume of 5×MAT2A enzyme reaction buffer was mixed well with 4× volumes of water.
# 4) 2×MAT2A enzyme solution was prepared with 1×MAT2A enzyme reaction buffer.
# 5) A 10 μL of 2×MAT2A enzyme solution was added to each well of the 384-reaction plate (Corning 3702), and the plate was sealed with a sealing film.
# 6) The plate was centrifuged at 1000 g for 60 seconds and incubated at room temperature for 30 minutes.
# 7) A mixture of 2×L-Methionine and ATP was prepared with 1×MAT2A enzyme reaction buffer.
# 8) 10 μL of the mixture of 2×L-Methionine and ATP was added to each well of the 384-reaction plate (Corning 3702), and the plate was sealed with a sealing film. The total reaction system was 20 μL.
# 9) The plate was centrifuged at 1000 g for 60 seconds and incubated at room temperature for 60 minutes.
# 10) The assay buffer Colorimetric Detection Rebgent was prepared.
# 11) 20 μL of the assay buffer was added to each well. The plate was centrifuged at 1000 g for 30 seconds and reacted at room temperature for 15 minutes.
# 12) Fluorescence signal at 630 nm was detected by a multifunctional microplate reader (PerkinElmer, Nivo).
# HCT116-MTAP−/− cells = test: Cell proliferation inhibition, HCT116 MTAP-/- (Cell Titer Glo, 5 days); format: cell-based; details: Homo sapiens, HCT-116, 120 h, 5 days treatment, read-out: HCT116 MTAP−/− cell proliferation inhibitory activity IC50:
# Experimental: (§1) The specific operation procedures were as follows. Tumor cells were treated with test compounds for 5 days, and the effect of the test compounds on the proliferation of tumor cells was evaluated. HCT116-MTAP^−/− and wild-type control HCT116-WT (colorectal cancer cells) cells were seeded in a 384-well plate at a density of 600 cells/well, and at the same time, different concentrations of the test compounds (starting from 20 μM, 10 concentration gradients) were added. The cells were incubated at 37° C., 5% CO2, and saturated humidity for 5 days.
# (§2) Cell proliferation was detected using an ATP-based Cell Proliferation Assay Kit (Cell Titer Glo, Promega Corporation). Cells were equilibrated at room temperature for 30 minutes and then treated with Cell Titer Glo reagent. The plate was then covered with aluminum foil and shaken for 15 minutes to allow mixing well and lysis. Chemiluminescence detection was performed using a multifunctional microplate reader (Envision 2105, PerkinElmer). A blank well (blank, cell-free) and a DMSO control well were set.
# (§3) The inhibition rate (IR) of the test compounds was calculated using the following formula: […]
# (§4) GraphPad Prism was used for graphing, data analysis and IC50 calculations.
# HCT116-WT cells = test: Cell proliferation inhibition, HCT116 wild-type (Cell Titer Glo, 5 days); format: cell-based; details: Homo sapiens, HCT-116, 120 h, 5 days treatment, maximum inhibition rate <50% expressed as IC50 > maximum initial concentration, read-out: HCT116 MTAP+/+ cell proliferation inhibitory activity IC50:
# Experimental: as §1, §2, §3, §4
# T1 sequence (P31153 whole entry): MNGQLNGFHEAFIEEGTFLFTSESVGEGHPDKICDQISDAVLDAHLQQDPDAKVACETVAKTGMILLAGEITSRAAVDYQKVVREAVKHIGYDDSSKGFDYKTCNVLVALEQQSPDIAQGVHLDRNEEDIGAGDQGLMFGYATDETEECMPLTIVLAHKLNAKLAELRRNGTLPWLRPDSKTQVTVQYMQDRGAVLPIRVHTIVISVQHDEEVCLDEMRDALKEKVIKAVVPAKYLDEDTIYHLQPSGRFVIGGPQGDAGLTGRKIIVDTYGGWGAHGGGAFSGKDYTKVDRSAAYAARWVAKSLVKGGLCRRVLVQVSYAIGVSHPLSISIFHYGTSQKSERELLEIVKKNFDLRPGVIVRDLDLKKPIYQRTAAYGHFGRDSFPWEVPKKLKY
SMILES,IC50 (MAT2A),IC50 (HCT116-MTAP−/− cells),IC50 (HCT116-WT cells)
"Cc1ncccc1-n1c(=O)nc2c3c(cc(C(F)(F)F)nc31)CCN2C [Compound C1, 4-methyl-1-(2-methylpyridin-3-yl)-8-(trifluoromethyl)-5,6-dihydro-1H-pyrimidino[4,5,6-ij][2,7]naphthyridin-2(4H)-one]",≤ 50 nM,,
Cc1ncccc1-n1c(=O)nc2c3c(cc(C(F)(F)F)nc31)CN2C [Compound A19],> 100 nM,,
"Cc1ncccc1-n1c(=O)nc2c3c(cc(Cl)cc31)CN2C [Compound A2, 7-chloro-4-methyl-1-(2-methylpyridin-3-yl)-4,5-dihydropyrrolo[2,3,4-de]quinazolin-2(1H)-one]",≤ 50 nM,45 nM,> 20000 nM
"Cc1ncccc1-n1c(=O)nc2c3c(cc(Cl)cc31)CN2c1ccc(Cl)cc1 [Compound A39, 7-chloro-4-(4-chlorophenyl)-1-(2-methylpyridin-3-yl)-4,5-dihydropyrrolo[2,3,4-de]quinazolin-2(1H)-one]",≤ 50 nM,308 nM,1350 nM
"CN1Cc2cc(Cl)cc3c2c1nc(=O)n3-c1cccnc1Cl [Compound A16, 7-chloro-4-methyl-1-(2-chloropyridin-3-yl)-4,5-dihydropyrrolo[2,3,4-de]quinazolin-2(1H)-one]",≤ 50 nM,112 nM,> 20000 nM
"CN1Cc2cc(Cl)cc3c2c1nc(=O)n3-c1cccnc1Cl (single isomer, unassigned) [Compound A16-P2, 7-chloro-4-methyl-1-(2-chloropyridin-3-yl)-4,5-dihydropyrrolo[2,3,4-de]quinazolin-2(1H)-one]",≤ 50 nM,,
"Cc1ncccc1-n1c(=O)nc2c3c(cc(Cl)cc31)NCC(O)N2C (stereo not drawn) [Compound B3, 9-chloro-5-hydroxy-4-methyl-1-(2-methylpyridin-3-yl)-4,5,6,7-tetrahydro-[1,4]diazepino[5,6,7-de]quinazolin-2(1H)-one]",50 to 100 nM,,
"Cc1ncccc1-n1c(=O)nc2c3c(cc(Cl)cc31)CCCN2 [Compound B1, 9-chloro-1-(2-methylpyridin-3-yl)-4,5,6,7-tetrahydroazepino[2,3,4-de]quinazolin-2(1H)-one]",> 100 nM,,
"Cc1ncccc1-n1c(=O)nc2c3c(cc(Cl)cc31)CN2c1ccccc1 [Compound A3, 7-chloro-4-phenyl-1-(2-methylpyridin-3-yl)-4,5-dihydropyrrolo[2,3,4-de]quinazolin-2(1H)-one]",≤ 50 nM,,
"Cc1ncccc1-n1c(=O)nc2c3c(cc(Cl)cc31)CN2c1ccc2nn(C)cc2c1 [Compound A38, 7-chloro-4-(2-methyl-2H-indazol-5-yl)-1-(2-methylpyridin-3-yl)-4,5-dihydropyrrolo[2,3,4-de]quinazolin-2(1H)-one]",≤ 50 nM,20 nM,> 20000 nM
"COc1ncccc1-n1c(=O)nc2c3c(cc(Cl)cc31)CN2C [Compound A40, 7-chloro-1-(2-methoxypyridin-3-yl)-4-methyl-4,5-dihydropyrrolo[2,3,4-de]quinazolin-2(1H)-one]",50 to 100 nM,,
"Cc1ncccc1-n1c(=O)nc2c3c(cc(Cl)cc31)OCCN2 [Compound B2, 9-chloro-1-(2-methylpyridin-3-yl)-5,6-dihydro-1H-[1,4]oxazepino[5,6,7-de]quinazolin-2(4H)-one]",> 100 nM,,
CN1Cc2cc(C(F)(F)F)nc3c2c1nc(=O)n3-c1cccnc1Cl [Compound A29],> 100 nM,,
"Cc1ncccc1-n1c(=O)nc2c3c(cc(Cl)cc31)CN2 [Compound A1, 7-chloro-1-(2-methylpyridin-3-yl)-4,5-dihydropyrrolo[2,3,4-de]quinazolin-2(1H)-one]",≤ 50 nM,199 nM,> 20000 nM
